# Assay results published in PMC9177545, “3-oxo-C12:2-HSL, quorum sensing molecule from human intestinal microbiota, inhibits pro-inflammatory pathways in immune cells via bitter taste receptors” (Scientific Reports, 2022).
# Legend:
# STAT3 = STAT3 phosphorylation by Wes capillary electrophoresis in activated RAW264.7 macrophages; format: cell-based, murine; conditions: 50 µM, 2 h, LPS and IFNγ stimulated
# Description: In RAW264.7 cells, inflammation was triggered with LPS (10 ng/mL, Sigma) and IFNγ (10 U/mL, R&Dsystems) for 2 h or 6 h, depending on the experiments. PBMC were exposed to LPS (10 ng/mL) and AHL for 24 h. For TAS2R38 inhibition experiments, cells were exposed to TAS2R38 allosteric inhibitor probenecid (1 mM, Sigma) for one hour before adding AHLs and the inflammatory cocktail, without changing the media.
# RAW264.7 cells were scraped in lysis buffer (20 mM Tris- HCl, pH 7.4, 5 mM EDTA, 0.15 M NaCl, 1% Triton X-100, 0.5% sodium deoxycholate) supplemented with protease inhibitor cocktail (Complete Mini; Roche, Boulogne-Billancourt, France) and phosphatase inhibitor cocktail (PhosSTOP, Sigma-Aldrich). Protein concentrations were determined using the BC Assay (Uptima/Interchim). Wes™ analyses (capillary electrophoresis system; ProteinSimple, San Jose, CA) were performed according to the manufacturer’s recommendations, and adequate protein concentrations and antibody dilutions were determined in preliminary assays to allow optimal quantitative conditions. […] Data were analysed using Compass for SW3.1 software (ProteinSimple).
# PBMC = test: TNFα secretion by ELISA in PBMC stimulated with LPS; format: cell-based, human; conditions: LPS 10 ng/mL, 24 h, dose-dependent between 25 to 100 µM
# Description: Peripheral Blood Mononuclear Cells (PBMC) were extracted from whole blood of anonymous donors and collected by Etablissement Français du Sang of Paris, France.
# PBMC were cultured in Roswell Park Memorial Institute medium (ThermoFisher Scientific) with 10% heat-inactivated fetal calf serum, 1% L-glutamine, 1% non-essential amino acids, 1% sodium pyruvate, penicillin (100 IU/mL), and streptomycin (100 µg/mL). Peripheral blood was harvested in EDTA tubes, blood was diluted with PBS 1:1, layered over Histopaque-1077® (Sigma) and centrifuged for 20 min at 400g at room temperature. Extracted PBMC were washed twice with sterile PBS then centrifuged at 300g for 5 min and resuspended in complete medium. For experiments, cells were seeded at 300,000 cells per well in 200 µL of medium in 96-well plates (ThermoFisher Scientific).
# Cells were exposed to 3-oxo-C12:2-HSL (synthesized as previously described[17]) or DMSO 0.1% as a control for different durations depending on the experiment, in the presence of the lactonase inhibitor 2-hydroxyquinoline (100 µM, Sigma-Aldrich), in order to limit the hydrolysis of the AHL lactone ring, as described previously[17],[18]. […]
# At the end of cell treatment, the medium was centrifuged at 300g for 5 min at 4 °C. […] Absorbance was measured by a spectrometer (FLUOstar Omega; BMG Labtech) at 450 nm and the absorbance at 540 nm was subtracted.
substance,measurement,setting,value
3-oxo-C12:2-HSL,phosphorylation level of STAT3 vs activated cells without AHL,STAT3,not significantly altered
same,TNFα secretion,PBMC,strongly decreased
